Laboratory results from patent US20080064758A1, “METHOD OF TREATMENT OR PROPHYLAXIS OF DEPRESSION” (MediciNova, Inc., priority 2006, published 2008).
Structures can show the parent of a compound that is named as a salt.

Tests used:
[1] = tested on: reserpine-induced hypothermia; test: Antagonism of the reserpine-induced hypothermia; format: in vivo, mice; conditions: given 4 hours after reserpine 2.5 mg/kg i.p.; rectal temperature 90 min after compound
Description: Antagonism of the Reserpine-Induced Hypothermia
The compounds of a general formula (I) as well as the reference compounds are administered 4 hours after reserpine (2.5 mg/kg i.p.). Rectal temperature is measured 90 minutes after the administration of the compounds to be tested.

[2] = tested on: apomorphine-induced hypothermia; test: Antagonism of apomorphine-induced hypothermia; format: in vivo; conditions: male CD1 mice; i.p.; apomorphine 16 mg/kg s.c.; rectal temperature 30 min after apomorphine
Description: Antagonism of Apomorphine-Induced Hypothermia (A. J. Puech et al., Psychopharmacology (1981) 75(1):84-91)
Male CD1 mice (Charles River) weighing 22-25 g are used in the test. The mice are housed individually in transparent plastic cages. The compounds of a general formula (I) as well as the reference compounds are suspended in 1% aqueous carboxymethylcellulose and administered intraperitoneally (10 ml/kg; 6 mice per dose). Control animals received the vehicle only.
Rectal temperature is measured using a probe carrying a thermoelectric couple (connected to a galvanometer) inserted to a constant depth.
The compounds to be tested as well as the vehicle are administered 30 minutes after basal rectal temperature is measured, and 30 minutes later apomorphine (16 mg/kg) is administered subcutaneously. Rectal temperature is measured again 30 minutes after the administration of apomorphine.
The results are expressed as average rectal temperature of each group, by evaluating the significant differences in temperature between treated and control mice by Student's t test, and are used for calculating the M.A.D., i.e., the minimal active dose.

immobility of mice = test: Tail suspension; format: in vivo; conditions: 30 mg/kg PO, reference
Description: Compounds of a general formula (I) (starting at an initial dose of 30 mg/kg PO, 1 hr pretreatment) were administered to mice (n=5). A reduction of immobility by 50% or more relative to a vehicle-treated control group indicates possible antidepressant activity. Fluoxetine hydrochloride served as a standard reference compound. […] There was a 35% mobility reduction at 100 mg/kg PO, 54% mobility reduction at 10 mg/kg PO and 46% mobility reduction at 1 mg/kg PO.

SMILES	M.A.D. (minimal active dose), antagonism of reserpine-induced hypothermia [1]	M.A.D. (minimal active dose), antagonism of apomorphine-induced hypothermia [2] [mg/kg i.p.]	reduction of immobility (immobility of mice) [%]
CCOC(=O)COc1cccc([C@@H]2CCC[C@@H](NC[C@H](O)c3cccc(Cl)c3)C2)c1 [Compound A, 3-[(1R,3R)-3-[(2R)-2-(3-chlorophenyl)-2-hydroxyethylamino]cyclohexyl]-phenoxy acetic acid ethyl ester, maleate salt]	closer to clenbuterol (0.03 mg/kg i.p.) than salbutamol (3.0 mg/kg i.p.)		
CC(C)(C)NCC(O)c1cc(Cl)c(N)c(Cl)c1 (stereo not drawn) [clenbuterol]	0.03 mg/kg i.p.	0.03	
CNCCC(Oc1ccc(C(F)(F)F)cc1)c1ccccc1 (stereo not drawn) [fluoxetine, Fluoxetine hydrochloride]			87
CC(C)(C)NCC(O)c1ccc(O)c(CO)c1 (stereo not drawn) [salbutamol]	3.0 mg/kg i.p.	1.0	
